Reference: patent publication US8852584B2, “Bactericide having selectivity to cariogenic bacterium, and a method for sterilization of cariogenic bacterium” (Two Cells Co., Ltd., priority 2005, dated 2014)

What was measured:
[1] = tested on: S. mutans PMZ175; assay: bacteriolytic effect, decrease in turbidity with time, various surfactants added to Aml; type: cell-based, Streptococcus mutans; conditions: Table 3
Protocol: (§1) The method for measuring the bacteriolytic effect adopted in the present invention is as follows.
(§2) The bacterial strain to be measured its bacteriolytic effect was cultivated overnight, it was washed by physiological saline then suspended into 0.1M phosphate buffer (pH 6.8) containing 0.1M NaCl and 0.1 mM CaCl2. The cell body was treated by ultrasonic generator to disperse the cell body. Thereafter, 500 μg/ml Aml solution dissolved into 30% ethyleneglycol-0.1M sodium phosphate buffer (pH 6.3) and 5 mg/ml surfactant dissolved into distilled water (40 μl) were added into a system consisting of 1 ml of bacterial suspension. 0.1M phosphate buffer solution and 0.1 mM calcium. It was incubated at 37° C., then the turbidity was measured with time, and the bacteriolytic effect was evaluated using the rate of decrease in turbidity as an index.
Using S. mutans PMZ175 (a cariogenic bacterium), the bacteriolytic effect was investigated using experimental systems in which various surfactants were added to Aml (FIG. 3, Table 3). Meanwhile, the food additives investigated in this experiment were glycyrrhizin (0.5%), saponin from quillaya (0.5%), S1670 (0.1%), S1570 (0.05%), P1670 (0.05%), saponin from soybean (0.05%), saponin from yucca (0.05%), and Triton X (0.05%).

[2] = tested on: Streptcoccus mutans 403R; assay: bacteriolytic effect, decrease in turbidity with time; type: cell-based, Streptococcus mutans; conditions: for percentage of turbidity (beginning = 100%): Table 1, Aml alone or Aml + 0.05% surfactant
Protocol: as §1, §2
Using Streptcoccus mutans 403R (dental caries causing bacterium), the bacteriolytic effect was measured with time using an experimental system of Aml alone, and an experimental system of Aml added with P1670 or S1570 at the concentration of 0.05% (Table 1, FIG. 1). In table 1 and FIG. 1, the turbidity of the bacterial solution at the beginning of the experiment was indicated as 100%, and the bacteriolytic effect was represented by the percentage of turbidity at each time point. […] By the way, the control indicates a system in which only a cariogenic bacterium was cultivated.
Using Streptcoccus mutans 403R, the bacteriolytic effect was measured with time on systems in which P1670 or S1570 was added into Aml at various final concentrations (0.05%, 0.025%, 0.001%) (Table 2, FIG. 2).

Molecule: CC1(C)[C@@H](O[C@H]2O[C@H](C(=O)O)[C@@H](O)[C@H](O)[C@H]2O[C@@H]2O[C@H](C(=O)O)[C@@H](O)[C@H](O)[C@H]2O)CC[C@]2(C)[C@H]3C(=O)C=C4[C@@H]5C[C@@](C)(C(=O)O)CC[C@]5(C)CC[C@@]4(C)[C@]3(C)CC[C@@H]12 [Glycyrrhizin, glycyrrhizin]
- percentage of turbidity (beginning = 100%) ([1]; Aml + 0.5% surfactant, Time 0): 100.0%
- percentage of turbidity (beginning = 100%) ([1]; Aml + 0.5% surfactant, Time 0.25): 96.6%
- percentage of turbidity (beginning = 100%) ([1]; Aml + 0.5% surfactant, Time 0.5): 93.6%
- percentage of turbidity (beginning = 100%) ([1]; Aml + 0.5% surfactant, Time 1): 89.0%
- percentage of turbidity (beginning = 100%) ([1]; Aml + 0.5% surfactant, Time 1.5): 81.3%
- percentage of turbidity (beginning = 100%) ([1]; Aml + 0.5% surfactant, Time 2.5): 83.7%
- percentage of turbidity (beginning = 100%) ([1]; Aml + 0.5% surfactant, Time 3): 80.3%
- percentage of turbidity (beginning = 100%) ([1]; Aml + 0.5% surfactant, Time 3.5): 82.3%
- percentage of turbidity (beginning = 100%) ([1]; Aml + 0.5% surfactant, Time 4): 77.4%

Molecule: CC(C)(C)CC(C)(C)c1ccc(OCCO)cc1 [Triton, Triton X]
- percentage of turbidity (beginning = 100%) ([1]; Aml + 0.05% surfactant, Time 0): 100.0%
- percentage of turbidity (beginning = 100%) ([1]; Aml + 0.05% surfactant, Time 0.25): 93.8%
- percentage of turbidity (beginning = 100%) ([1]; Aml + 0.05% surfactant, Time 0.5): 68.6%
- percentage of turbidity (beginning = 100%) ([1]; Aml + 0.05% surfactant, Time 1): 10.3%
- percentage of turbidity (beginning = 100%) ([1]; Aml + 0.05% surfactant, Time 1.5): −3.4%
- percentage of turbidity (beginning = 100%) ([1]; Aml + 0.05% surfactant, Time 2.5): −6.6%
- percentage of turbidity (beginning = 100%) ([1]; Aml + 0.05% surfactant, Time 3): −7.1%
- percentage of turbidity (beginning = 100%) ([1]; Aml + 0.05% surfactant, Time 3.5): −7.7%
- percentage of turbidity (beginning = 100%) ([1]; Aml + 0.05% surfactant, Time 4): −8.8%

B1: automutanolysin (protein)
chain: MKSKTYLMIPLALTLFMAANKISADEQNQSLSASEVISSDATSVSELPATTAQISQEVRNNGQDSTIQLQQTQEQSDPITSTSETTVSSMKAATNGSPAKANETETVPSQASTASSVQTPDQILTVPSVKAETTSTADQLQSTSSAPLDQQTDAKRLSNKMTPASSVQARSSLTQDKQVQAQEVTSAVVEEKGIKLQYNGQIARNTKIQFAVWSARNDQDDLQWYTANNMGAAYAEFKNHREYGTYYVHTYANQNGKMIGLNATTLTIAQPQVQTNIQRKSATNFELTVSNVPNTISGIMVPVWSDQNGQDDIKWYNARKADDGSYKVLIDTKNHKNDLGHYEAHIYGYSTVTQSQIGLAVSSGFDRNDTRPNARISVANYDQNKTTFDVVVEGSSDTKTVSAVNIAVWSEDKGQDDLKWYSPKIVDNKATVTINIANHSNTSDKYNVHVYTDYTDGTHSGTILGAYQINKPLEKNTVSADLTSDGIALKLDSNTVTDYTKVRFAVWSDQNGQDDLKWYSANSDGTATAAYSNHSGYGLYHIHTYIIKDGKMVGLNGKTITINQPSAKVDIAKESDALYKVTVSNLPAYISSVVIPVWTDKNNQDDIQWIPATKQGDGTYAAQIQLADHNGETGHYNVHVYGQSKFDNKAVGLAATDGFNVAETRNAVIAASNYNASAGTIDMIVKQEAGGKAIKEVRIAAWSEADQSNLHWYVSSTIIDGKVTVTINEKNHQYIKGNYNIHVYVDYTDGTSSGTNIGNYSLNADKPAVALPSYFIDISSHNGIISVAEFNSLKQQGIQGVVVKLTEGTSYINPYASSQIANARAAGIKVSAYHYAHYTSAAGAQEEARYFANAARSFGLEASTVMVNDMEESSMVNNINNNVQAWQDEMRRQGYSNLIHYTMASWLDIRGGQVDTARFGINNFWVAHYAKGYTYMTQEEAKSLNYYANAAAWQYTSVSSKLSHALDENIDYTGRFTQQ
modifications: Streptococcus mutans
notes: bacterial cell wall lytic enzyme from Streptococcus mutans specific to cariogenic bacterium
- percentage of turbidity (beginning = 100%) ([2]; Time 0): 100.0%
- percentage of turbidity (beginning = 100%) ([2]; Time 0.25): 93.3%
- percentage of turbidity (beginning = 100%) ([2]; Time 0.5): 81.5%
- percentage of turbidity (beginning = 100%) ([2]; Time 1): 62.6%
- percentage of turbidity (beginning = 100%) ([2]; Time 1.5): 50.8%
- percentage of turbidity (beginning = 100%) ([2]; Time 2): 42.2%
- percentage of turbidity (beginning = 100%) ([2]; Time 4): 24.6%
- time required for the bacteriolysis of 50% of living bacterium (ED50) ([2]; summary, Aml alone): 1.5 h
